Read-outs that look alike come from different tables or passages of the source.
Tests used:
[1] = tested on: HBV rcDNA in HepDE19 cells; experiment: Inhibition of rcDNA in HepDE19 cells (bDNA assay), checkerboard, MacSynergy II; format: cell-based, HBV (human hepatoma cell line); design: key to ADDITIVE INHIBITION: % inhibition of rcDNA production; conditions: for ADDITIVE INHIBITION: GLS-4 0 μM; for inhibition at 0.000125 µM: ETV 0.125 nM alone
Method: In vitro combination studies were conducted using the method of Prichard and Shipman (Prichard M N, and Shipman C Jr., Antiviral Research, 1990, 14(4-5), 181-205; and Prichard M N, et. al., MacSynergy II). HepDE19 cell culture system is a HepG2 (human hepatocarcinoma) derived cell line that supports HBV DNA replication and cccDNA formation in a tetracycline (Tet)-regulated manner and produces HBV rcDNA and a detectable reporter molecule dependent on the production and maintenance of cccDNA (Guo et al 2007. J. Virol 81:12472-12484). HepDE19 (50,000 cells/well) were plated in 96 well collagen-coated tissue-culture treated microtiter plates in DMEM/F12 medium supplemented with 10% fetal bovine serum, 1% penicillin-streptomycin and 1 μg/ml tetracycline and incubated in a humidified incubator at 37° C. and 5% CO2 overnight. Next day, the cells were switched to fresh medium without tetracycline and incubated for 4 hrs at 37° C. and 5% CO2. […] The two inhibitors were tested both singly as well as in combinations in a checkerboard fashion such that each concentration of inhibitor A was combined with each concentration of inhibitor B to determine their combination effects on inhibition of rcDNA production. Following a 7 day-incubation of cells with compound combinations, the level of rcDNA present in the inhibitor-treated wells was measured using a Quantigene 2.0 bDNA assay kit (Affymetrix, Santa Clara, CA) with HBV specific custom probe set and manufacturers instructions. […] The RLU data from the single compound treated cells were analyzed using XL-Fit module in Microsoft Excel to determine EC50 values using a 4-parameter curve fitting algorithm. Concurrently, the effect of compounds on cell viability was assessed using replicate plates, plated at a density of 5,000 cells/well and incubated for 4 days, to determine the ATP content as a measure of cell viability using the cell-titer glo reagent (CTG; Promega Corporation, Madison, WI) as per manufacturer's instructions.
In vitro combination studies were conducted using the method of Prichard and Shipman (Prichard M N, Shipman C, Jr., Antiviral Res, 14, 181-205 (1990)). The HepDE19 cell line was developed as described in Guo et al. (Guo et al., J Virol, 81, 12472-12484 (2007)). It is a human hepatoma cell line stably transfected with the HBV genome, and which can express HBV pregenomic RNA and support HBV rcDNA (relaxed circular DNA) synthesis in a tetracycline-regulated manner. HepDE19 cells were plated in 96 well tissue-culture treated microtiter plates in DMEM/F12 medium supplemented with 10% fetal bovine serum+1% penicillin-streptomycin without tetracycline and incubated in a humidified incubator at 37° C. and 5% CO2 overnight. […] The two inhibitors were tested both singly as well as in combinations in a checkerboard fashion such that each concentration of inhibitor A was combined with each concentration of inhibitor B to determine their combination effects on inhibition of rcDNA production. Following a 48 hour-incubation, the level of rcDNA present in the inhibitor-treated wells was measured using a bDNA assay (Affymetrix) with HBV specific custom probe set and manufacturers instructions. […] Concurrently, the effect of inhibitor combinations on cell viability was assessed using replicate plates that were used to determine the ATP content as a measure of cell viability using the Cell-TiterGlo reagent (Promega) as per manufacturer's instructions.
In vitro combination studies were conducted using the method of Prichard and Shipman (1990) (Prichard M N, Shipman C, Jr. 1990. A three-dimensional model to analyze drug-drug interactions. Antiviral Res 14:181-205 AND Prichard M N. 1992. MacSynergy II, University of Michigan).

hepatitis B virus (HBV) = experiment: Serum HBV DNA in mouse model of HBV (pHBV1.3 hydrodynamic injection), quantitative PCR; format: in vivo, NOD.CB17-Prkdc^scid/J mice; conditions: mean ± SEM
Method: A mouse model of hepatitis B virus (HBV) was used to assess the anti-HBV effects of a small molecule inhibitor of HBV encapsidation (Compound 3) and HBV-targeting siRNAs, both as independent treatments and in combination with each other.
On Day −7, 10 micrograms of the plasmid pHBV1.3 (as per Guidotti, L., et al., Journal of Virology, 1995, 69(10): 6158-6169) was administered to NOD.CB17-Prkdc^scid/J mice via hydrodynamic injection (HDI; rapid 1.6 mL injection into the tail vein). […] As a readout of the anti-HBV effect of various treatments, serum HBV DNA concentration in mice was measured from total extracted DNA using a quantitative PCR assay (primer/probe sequences from Tanaka, Y., et al., Journal of Medical Virology, 2004, 72: 223-229).
Animals were treated with Compound 3 as follows: Starting on Day 0, a 50 mg/kg or 100 mg/kg dosage of Compound 3 was administered orally to animals on a twice-daily frequency for a total of fourteen doses between Days 0 and 7. Compound 3 was dissolved in a co-solvent formulation for administration. Negative control animals were administered either the co-solvent formulation alone, or saline. Animals were treated with lipid nanoparticle (LNP)-encapsulated HBV-targeting siRNAs as follows: On Day 0, an amount of test article equivalent to 0.1 mg/kg siRNA was administered intravenously.
The effect of these treatments was determined by collecting blood on Days 0 (pre-treatment), 4 & 7 and analyzing it for serum HBV DNA content.
Animals were treated with Compound 3 as follows: Starting on Day 0, a 100 mg/kg dosage of Compound 3 was administered orally to animals on a twice-daily frequency for a total of fourteen doses between Days 0 and 7. Compound 3 was dissolved in a co-solvent formulation for administration. Negative control animals were administered either the co-solvent formulation alone, or saline. Animals were treated with ETV as follows: Starting on Day 0, either a 100 ng/kg or a 300 ng/kg dosage of ETV was administered orally to animals on a once-daily frequency for a total of seven doses between Days 0 and 6. ETV was dissolved in DMSO to 2 mg/mL and then diluted in saline for administration.
The effect of these treatments was determined by collecting blood on Days 0 (pre-treatment), 4 & 7 and analyzing it for serum HBV DNA content. Samples with Ct values below the lower limit of quantitation (LLOQ) were set to one-half LLOQ for calculation of group means.

Compound: CC[C@@H](C)NS(=O)(=O)c1ccc(F)c(C(=O)Nc2ccc(F)c(F)c2)c1 [Compound 3]
- ADDITIVE INHIBITION ([1]; Compound 3 0.040 μM): 11.14
- ADDITIVE INHIBITION ([1]; Compound 3 0.110 μM): 19.99
- ADDITIVE INHIBITION ([1]; Compound 3 0.330 μM): 56.68
- ADDITIVE INHIBITION ([1]; Compound 3 1.000 μM): 86.87
- Serum HBV DNA as percentage of individual pre-treatment baseline (hepatitis B virus (HBV); Table 2, Day 0 (pre-treatment), Compound 3 50 mg/kg oral twice daily, alone or with HBV siRNA 0.1 mg/kg IV Day 0): 100 ± 0%
- Serum HBV DNA as percentage of individual pre-treatment baseline (hepatitis B virus (HBV); Table 2, Day 0 (pre-treatment), Compound 3 100 mg/kg oral twice daily, alone or with HBV siRNA 0.1 mg/kg IV Day 0): 100 ± 0%
- Serum HBV DNA as percentage of individual pre-treatment baseline (hepatitis B virus (HBV); Table 3, Day 0 (pre-treatment), Compound 3 100 mg/kg oral twice daily alone): 100 ± 0%

Compound: C=C1[C@H](CO)[C@@H](O)C[C@@H]1n1cnc2c(=O)[nH]c(N)nc21 [ETV, Entecavir]
- inhibition at 15.63 pM ([1]; Hepatitis B virus, HepDE19, ETV 0.015625 nM alone, read-out: Additive inhibition (rcDNA)): -43.7%
- inhibition at 16 pM ([1]; Hepatitis B virus, HepDE19, ETV 0.016 nM alone): -43.7%
- inhibition at 31 pM ([1]; Hepatitis B virus, HepDE19, ETV 0.031 nM alone): -50.1%
- inhibition at 31.25 pM ([1]; Hepatitis B virus, HepDE19, ETV 0.03125 nM alone, read-out: Additive inhibition (rcDNA)): -50.1%
- inhibition at 62.5 pM ([1]; Hepatitis B virus, HepDE19, ETV 0.0625 nM alone, read-out: Additive inhibition (rcDNA)): -30.3%
- inhibition at 63 pM ([1]; Hepatitis B virus, HepDE19, ETV 0.063 nM alone): -30.3%
- inhibition at 0.000125 µM ([1]; Hepatitis B virus, HepDE19, read-out: Additive inhibition (rcDNA)): -23.5%
- inhibition at 0.000125 µM ([1]; Hepatitis B virus, HepDE19, read-out: Average % inhibition (rcDNA)): -23.5%
- inhibition at 0.00025 µM ([1]; Hepatitis B virus, HepDE19, ETV 0.25 nM alone, read-out: Additive inhibition (rcDNA)): -21.2%
- inhibition at 0.00025 µM ([1]; Hepatitis B virus, HepDE19, ETV 0.250 nM alone, read-out: Average % inhibition (rcDNA)): -21.2%
- inhibition at 0.0005 µM ([1]; Hepatitis B virus, HepDE19, ETV 0.5 nM alone, read-out: Additive inhibition (rcDNA)): -10.2%
- inhibition at 0.0005 µM ([1]; Hepatitis B virus, HepDE19, ETV 0.500 nM alone, read-out: Average % inhibition (rcDNA)): -10.2%
- inhibition at 0.001 µM ([1]; Hepatitis B virus, HepDE19, ETV 1 nM alone, read-out: Additive inhibition (rcDNA)): 41.7%
- inhibition at 0.001 µM ([1]; Hepatitis B virus, HepDE19, ETV 1.000 nM alone, read-out: Average % inhibition (rcDNA)): 41.7%
- inhibition at 0.002 µM ([1]; Hepatitis B virus, HepDE19, ETV 2 nM alone, read-out: Additive inhibition (rcDNA)): 58.4%
- inhibition at 0.002 µM ([1]; Hepatitis B virus, HepDE19, ETV 2.000 nM alone, read-out: Average % inhibition (rcDNA)): 58.4%
- inhibition at 0.004 µM ([1]; Hepatitis B virus, HepDE19, ETV 4 nM alone, read-out: Additive inhibition (rcDNA)): 70%
- inhibition at 0.004 µM ([1]; Hepatitis B virus, HepDE19, ETV 4.000 nM alone, read-out: Average % inhibition (rcDNA)): 70%
- Serum HBV DNA as percentage of individual pre-treatment baseline (hepatitis B virus (HBV); Table 3, Day 0 (pre-treatment), ETV 100 ng/kg oral once daily, alone or with Compound 3 100 mg/kg oral twice daily): 100 ± 0%
- Serum HBV DNA as percentage of individual pre-treatment baseline (hepatitis B virus (HBV); Table 3, Day 0 (pre-treatment), ETV 300 ng/kg oral once daily, alone or with Compound 3 100 mg/kg oral twice daily): 100 ± 0%
- Serum HBV DNA as percentage of individual pre-treatment baseline (hepatitis B virus (HBV); Table 3, Day 4, ETV 100 ng/kg oral once daily, alone or with Compound 3 100 mg/kg oral twice daily): 21 ± 5%
- Serum HBV DNA as percentage of individual pre-treatment baseline (hepatitis B virus (HBV); Table 3, Day 4, ETV 300 ng/kg oral once daily, alone or with Compound 3 100 mg/kg oral twice daily): 1.6 ± 0.3%
- Serum HBV DNA as percentage of individual pre-treatment baseline (hepatitis B virus (HBV); Table 3, Day 7, ETV 100 ng/kg oral once daily, alone or with Compound 3 100 mg/kg oral twice daily): 3.5 ± 0.7%
- Serum HBV DNA as percentage of individual pre-treatment baseline (hepatitis B virus (HBV); Table 3, Day 7, ETV 300 ng/kg oral once daily, alone or with Compound 3 100 mg/kg oral twice daily): 0.88 ± 0.31%
